The values that follow come from US4282244A, “Optical isomers of 4-amino-N-(1-cyclohexyl-3-pyrrolidinyl)-N-methylbenzamide” (A. H. Robins Company, Inc., priority 1980, dated 1981).

Data set [1] can be described thus: acute toxicity (LD50), mouse. It counts as in vivo. The note with it: in vivo, fumarate salt, expressed as free base, read-out: LD50 (95% Confidence Limits). The procedure: (§1) The acute toxicities of the ±-racemate, the (+)-isomer and the (-)-isomer were conducted with the fumarate salts and probit analysis (Finney, D. J., Statistical Methods in Biological Assay, Hafner Pub. Co., N.Y., 2nd. Ed., 1964) was employed for the statistical treatment of the mortality data.

A short description of data set [2]: acute toxicity (LD50), rat. It counts as in vivo. The following applies: in vivo, fumarate salt, expressed as free base, read-out: LD50 (95% Confidence Limits). The procedure: as §1
Data set [3] can be described thus: cataleptic effects (Tedeschi et al.). It counts as in vivo, rat. The following applies: in vivo, rat, expressed as free base; for TD50: footnote c, read-out: Neurotoxic dose level evidenced by seizures in test animals; for NOAEL: fumarate salt. The text has this:
(§2) The procedure used for determing cataleptic effects of the fumarate salts was based on that of Tedeschi et al., Arch. Int. Pharmacodyn.

Data set [4] deals with catalepsy. In words: cataleptic effects (Tedeschi et al.). It counts as in vivo, rat.
From the text: as §2

Data set [5] relates to Metoclopramide-Induced Catalepsy. Nature of the data set: Effects on Metoclopramide-Induced Catalepsy. It counts as in vivo, rat. The note with it: Metoclopramide 40 mg/kg IP, then saline IP after one hour. Here is the method:
(§3) (+)-4-Amino-N-(1-cyclohexyl-3-pyrrolidinyl)-N-methylbenzamide is useful in reducing the cataleptic side effects of known therapeutically effective drugs such as chlorpromazine [2-chloro-10-(3-dimethylaminopropyl)phenothiazine] and metoclopramide (N-diethylaminoethyl 2-methoxy-4-amino-5-chlorophenylcarboxamide). The effectiveness is shown in Tables IV and V. In each test the rat was administered a 100% effective cataleptic dose of the test drug followed one hour later by an effective dose of (+)-4-amino-N-(1-cyclohexyl-3-pyrrolidinyl)-N-methylbenzamide.

For data set [6], the system named is Chlorpromazine-Induced Catalepsy. In words: Effects on Chlorpromazine-Induced Catalepsy. It counts as in vivo, rat. The following applies: Chlorpromazine 4 mg/kg IP, then saline IP after one hour. The procedure: as §3

Where a name gives a salt, the structure may show the parent alone.

Usually LD50 stands for the dose expected to kill half of the subjects tested. The term NOAEL denotes the highest dose or exposure tested at which no adverse effect was seen. Take `CN(C(=O)c1ccc(N)cc1)C1CCN(C2CCCCC2)C1` (racemic) [± racemate, 4-amino-N-(1-cyclohexyl-3-pyrrolidinyl)-N-methylbenzamide]: the LD50 is 90.2 mg/kg in data set [1] (ip, I.P.); 181 mg/kg in data set [1] (po, P.O.); 111 mg/kg in data set [2] (ip, I.P.); 305 mg/kg in data set [2] (po, P.O.). In addition, the TD50 in data set [3] (IP) is 100 mg/kg. In addition, the NOAEL amounted to 100 mg/kg in data set [3] (IP) and 200 mg/kg in data set [3] (PO). Further, the cataleptic properties entry in data set [4] is on record as “notable absence of cataleptic properties”.
Turning to `CCN(CC)CCNC(=O)c1cc(Cl)c(N)cc1OC` [Metoclopramide, N-diethylaminoethyl 2-methoxy-4-amino-5-chlorophenylcarboxamide, reference compound], the “Percent of Rats Cataleptic” value in data set [5] (0.5 h after initial treatment), in data set [5] (1.0 h after initial treatment), in data set [5] (1.5 h after initial treatment), in data set [5] (2.0 h after initial treatment), in data set [5] (3.0 h after initial treatment) and in data set [5] (4.0 h after initial treatment) was 100% throughout. Further, the “Percent of Rats Cataleptic” value in data set [5] (5.0 h after initial treatment) and in data set [5] (6.0 h after initial treatment) was 100% each time.
In the case of `CN(C)CCCN1c2ccccc2Sc2ccc(Cl)cc21` [Chlorpromazine, 2-chloro-10-(3-dimethylaminopropyl)phenothiazine, reference compound], the “Percent of Rats Cataleptic” value in data set [6] (0.5 h after initial treatment), in data set [6] (1.0 h after initial treatment), in data set [6] (1.5 h after initial treatment), in data set [6] (2.0 h after initial treatment), in data set [6] (3.0 h after initial treatment) and in data set [6] (4.0 h after initial treatment) was 100% each time. The “Percent of Rats Cataleptic” value in data set [6] (5.0 h after initial treatment) and in data set [6] (6.0 h after initial treatment) was 100% each time.
For `CN(C(=O)c1ccc(N)cc1)C1CCN(C2CCCCC2)C1` (single isomer, unassigned; (-)) [(-)-isomer, (-)-4-Amino-N-(1-cyclohexyl-3-pyrrolidinyl)-N-methyl benzamide Fumarate], the LD50 worked out at 103 mg/kg in data set [1] (ip, I.P.); 241 mg/kg in data set [1] (po, P.O.); 116 mg/kg in data set [2] (ip, I.P.); 410 mg/kg in data set [2] (po, P.O.). Further, in data set [3] (IP), the TD50 turned out to be 100 mg/kg.
